Reference: ChEMBL document CHEMBL4219154, “Design, synthesis, nuclear localization, and biological activity of a fluorescent duocarmycin analog, HxTfA” (Bioorg Med Chem Lett, 2018)
Activity calls are given as the source filed them. The calls are words filed in the database; no cut-off is given here.

Experiments:
A549 [1] = experiment: Induction of apoptosis in human A549 cells assessed as increase in gamma-H2AX level at 0.1 to 5 uM incubated for 5 hrs followed by 24 hrs incubation in drug free medium by confocal microscopy; assay type: functional, cell-based
A549 [2] = experiment: Induction of apoptosis in human A549 cells assessed as decrease in survivin level at 0.1 uM incubated for 5 hrs followed by 24 hrs incubation in drug free medium by immunoblotting based confocal microscopy; assay type: functional, cell-based
A549 [3] = experiment: Cytotoxicity against human A549 cells after 3 days by MTT assay; assay type: functional, cell-based; details: A549, 72 h
A549 [4] = experiment: Induction of apoptosis in human A549 cells assessed as decrease in Bcl-xL level at 0.05 to 20 uM incubated for 5 hrs followed by 24 hrs incubation in drug free medium by immunoblotting based confocal microscopy; assay type: functional, cell-based
B16 = experiment: Cytotoxicity against mouse B16 cells after 3 days by MTT assay; assay type: functional, cell-based; details: B16, 72 h
Escherichia coli [5] = experiment: Alkylating activity at N3 position of 5'-AAAAA-3' (865) in Escherichia coli pUC18 DNA at 0.1 uM after 5 hrs by electrophoresis analysis; assay type: functional
A549 [6] = experiment: Cytotoxicity against human A549 cells after 4 days by MTT assay; assay type: functional, cell-based; details: A549, 96 h
Plasmodium falciparum = experiment: Antiplasmodial activity against Plasmodium falciparum 3D7 infected in red blood cells after 48 hrs; assay type: functional, organism-based; details: 3D7, 48 h
A549 [7] = experiment: Induction of apoptosis in human A549 cells assessed as increase in gamma-H2AX level at 0.1 to 10 uM incubated for 5 hrs followed by 24 hrs incubation in drug free medium by immunofluorescence assay; assay type: functional, cell-based
Escherichia coli [8] = experiment: Induction of DNA cleavage at AT-mixed sequence 5'-TTTTA-3'(843) in Escherichia coli pUC18 DNA at 0.1 to 30 uM after 5 hrs by electrophoresis analysis
A549 [9] = experiment: Induction of apoptosis in human A549 cells assessed as decrease in Bcl-xL level at 0.1 to 20 uM incubated for 5 hrs followed by 24 hrs incubation in drug free medium by immunoblotting based confocal microscopy; assay type: functional, cell-based
Escherichia coli [10] = experiment: Alkylating activity at N3 position of 5'-AAAAA-3' (865) in Escherichia coli pUC18 DNA at 1 uM after 5 hrs by electrophoresis analysis; assay type: functional
[11] = Drug uptake in nucleus of human A549 cells at 1 uM after 24 hrs by propidium iodide staining based confocal microscopy; assay type: ADME, subcellular; details: a549, 24 h
A549 [12] = experiment: Induction of apoptosis in human A549 cells assessed as decrease in survivin level at 1 to 20 uM incubated for 5 hrs followed by 24 hrs incubation in drug free medium by immunoblotting based confocal microscopy; assay type: functional, cell-based
[13] = Drug uptake in nucleus of human A549 cells at 50 to 100 uM after 24 hrs by mitrotracker red CMXRos staining based fluorescence microscopy; assay type: ADME, subcellular; details: a549, 24 h
A549 [14] = experiment: Induction of apoptosis in human A549 cells assessed as increase in cleaved caspase 3 level at 1 uM incubated for 5 hrs followed by 24 hrs incubation in drug free medium by immunofluorescence assay; assay type: functional, cell-based

Row | Compound | Activity (A549 [1]) | Activity (A549 [2]) | IC50 (A549 [3]) | Activity (A549 [4]) | IC50 (B16) | Activity (Escherichia coli [5]) | IC50 (A549 [6]) | IC50 (Plasmodium falciparum) | Activity (A549 [7]) | Activity (Escherichia coli [8]) | Activity (A549 [9]) | Activity (Escherichia coli [10]) | Drug uptake [11] | Activity (A549 [12]) | Drug uptake [13] | Activity (A549 [14])
1 | COc1cc2cc(C(=O)N3CC(CCl)c4c3cc(O)c3ccoc43)[nH]c2c(OC)c1OC (stereo not given) | Active | Active | 53 nM | inactive | 40 nM | Active | 3.7 nM | 0.064 nM | Active |  |  |  |  |  |  | 
2 | COc1ccc(-c2nc3ccc(C(=O)N4CC(CCl)c5c4cc(O)c4ccoc54)cc3[nH]2)cc1 (stereo not given) | Active |  |  |  |  |  | 26 nM | 3.7 nM | Active | Active | inactive | Active | Active | Active | Active | Active
